Source: EPA's ToxValDB 9.5 (doi:10.2903/j.efsa.2011.2088)

Columns and labels:
[1] = tested on: Anas platyrhynchos; conditions: short-term; oral; feed; mortality
[2] = tested on: Apis mellifera; conditions: acute; duration: 48 hours; dermal; mortality
[3] = tested on: Bibionidae; conditions: chronic/long-term; duration: 28 days
[4] = tested on: Canidae; conditions: chronic; duration: 1 years; oral; diet; M/F; Beagle; hematological
[5] = tested on: Colinus virginianus; conditions: for LD50: acute, oral, mortality
[6] = tested on: Daphnia magna; conditions: chronic/long-term; duration: 21 days; mortality
[7] = tested on: Folsomia candida; conditions: chronic/long-term; duration: 28 days
[8] = tested on: Oncorhynchus mykiss; conditions: acute; duration: 96 hours; mortality
[9] = tested on: Pimephales promelas; conditions: chronic/long-term; duration: 34 days; reproduction
[10] = tested on: Rattus norvegicus
[11] = tested on: Tagia sp.; conditions: mortality
[12] = tested on: Aphidius rhopalosiphi; assay: LR50; higher = less toxic; conditions: not reported; mortality
[13] = tested on: Typhlodromus pyri; assay: LR50; higher = less toxic; conditions: not reported; mortality

`O=C(NC(=O)c1c(F)cccc1F)Nc1ccc(Oc2ccc(C(F)(F)F)cc2Cl)cc1F` [Flufenoxuron] gave an LD50 [1] of over 1240 mg/kg-day, an LD50 [2] of over 100 µg/piece and an NOEC [3] of 3.6e-05 mg/L. It also gave an NOAEL [4] of at most 3.8 mg/kg-day, an LD50 ([5]; diet) of over 1240 mg/kg-day and an LD50 [5] of over 2000 mg/kg-day. The NOEL ([5]; reproduction developmental) was 9.76 mg/kg-day, the NOEC [6] was 3.24e-06 mg/L and the NOEC [7] was 0.11 mg/kg. The LC50 [8] was over 5 ng/mL, the NOEC [9] was 0.00082 mg/L and the LD50 ([10]; acute, oral, mortality) was over 3000 mg/kg-day. For the same compound, the NOAEL ([10]; reproduction developmental, growth) was 4.3 mg/kg-day, the LC50 ([11]; acute, duration: 14 days) was over 1000 mg/kg and the NOEC ([11]; chronic/long-term, duration: 56 days) was 5 mg/kg. It also gave an LR50 [12] of over 386 g/ha and an LR50 [13] of 73 g/ha.
